Assay results from PubChem BioAssay (NCI).
Values joined by “and” are separate entries in the source; they are usually repeats but may differ in a detail not shown here. Equal entries are not always repeated.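 Test compounds were applied to cells in 96-well plates for 48 hours at 5 doses. GI50 = concentration required for 50% inhibition of growth. TGI: total growth inhibition.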

Assays:
Test in all cases: growth of human tumour cells (NCI), 48 h
HCT-116 colon = test system: HCT-116 colon
NCI-H23 lung = test system: NCI-H23 lung
M14 melanoma = test system: M14 melanoma
OVCAR-8 ovarian = test system: OVCAR-8 ovarian
SK-MEL-28 melanoma = test system: SK-MEL-28 melanoma
RPMI-8226 leukemia = test system: RPMI-8226 leukemia
SW-620 colon = test system: SW-620 colon
SK-OV-3 ovarian = test system: SK-OV-3 ovarian
NCI-H460 lung = test system: NCI-H460 lung
NCI-H522 lung = test system: NCI-H522 lung

SMILES | GI50 (HCT-116 colon) | TGI (HCT-116 colon) | GI50 (NCI-H23 lung) [nM] | TGI (NCI-H23 lung) | GI50 (M14 melanoma) | TGI (M14 melanoma) | GI50 (OVCAR-8 ovarian) | TGI (OVCAR-8 ovarian) | GI50 (SK-MEL-28 melanoma) [µM] | TGI (SK-MEL-28 melanoma) | GI50 (RPMI-8226 leukemia) [nM] | TGI (RPMI-8226 leukemia) [µM] | GI50 (SW-620 colon) | TGI (SW-620 colon) | GI50 (SK-OV-3 ovarian) | TGI (SK-OV-3 ovarian) | GI50 (NCI-H460 lung) [µM] | TGI (NCI-H460 lung) [µM] | GI50 (NCI-H522 lung) [µM] | TGI (NCI-H522 lung) [µM]
CO[C@H](C(=O)[C@@H](O)[C@@H](C)O)[C@@H]1Cc2cc3cc(O[C@H]4C[C@@H](O[C@H]5C[C@@H](O)[C@H](O)C(C)O5)[C@H](O)C(C)O4)c(C)c(O)c3c(O)c2C(=O)[C@H]1O[C@H]1C[C@@H](O[C@H]2C[C@@H](O[C@H]3C[C@@H](OC)[C@H](O)C(C)O3)[C@@H](O)C(C)O2)C(O)(O)C(C)O1 (stereo partly specified) | 0.035 µM | > 25 µM | 176 | 4.22 µM | 0.275 µM | 6.18 µM | 0.225 µM | > 25 µM | 0.0439 | 1.11 µM | 182 | > 11.4 | 0.164 µM | > 25 µM | 0.113 µM | > 25 µM | 0.033 | > 25 | 0.0168 | 0.304
CC(=O)C1=C(O)C=C2Oc3c(C(=O)/C=C/c4cc(C(F)(F)F)cc(C(F)(F)F)c4)c(O)c(C)c(O)c3[C@]2(C)C1=O | 0.401 µM | 1.02 µM | 528 | 2.87 µM | 0.612 µM | 2.31 µM | 0.496 µM | 1.91 µM | 0.747 | 2.96 µM | 442 | 1.28 | 0.553 µM | 2.19 µM | 1.07 µM | 5.98 µM | 0.521 | 1.9 | 0.38 | 1.22
N#Cc1cc(C#N)c(Cl)nc1N |  | > 10 µM |  | > 10 µM |  |  |  | > 10 µM |  | > 10 µM |  | > 10 |  | > 10 µM |  | > 10 µM |  | > 10 |  | 
CN(C)c1ccc2c(c1)C(=O)N(OS(=O)(=O)c1ccc([N+](=O)[O-])cc1)C2=O |  | > 10 µM |  | 64 µM |  | 38.8 µM |  | 61.2 µM |  | 63.9 µM |  |  |  | 46.8 µM |  | > 100 µM |  | > 100 |  | 30.5
O=C(c1ccc2ccccc2c1O)N1CCCCC1 |  | > 100 µM |  | 90 µM |  | > 100 µM |  | > 100 µM |  | > 100 µM |  | 95.9 |  | > 100 µM |  | > 100 µM |  | > 100 |  | 
Nc1nc(CCC(=O)Nc2cccc(C(F)(F)F)c2)cc(-c2cccc3ccccc23)n1 |  | > 100 µM |  | > 100 µM |  | > 100 µM |  | > 100 µM |  | > 100 µM |  |  |  | > 100 µM |  | > 100 µM |  | > 100 |  | > 100
CN1CCc2cc3c(cc2C1O)OCO3 (stereo unspecified) | 19.2 µM and > 100 µM | 36.2 µM and > 100 µM |  | 32.1 µM and > 100 µM | 16.7 µM and > 100 µM | 37.8 µM and > 100 µM | 21.6 µM and > 100 µM | 51.6 µM and > 100 µM |  | 22.3 µM and > 100 µM |  | > 100 | 16.6 µM and > 100 µM | 33.8 µM and > 100 µM | 17.5 µM and > 100 µM | 31.7 µM and > 100 µM |  |  |  | 
O=C(Nc1ccc(Cl)cc1Cl)c1ccc(NC2=C(Cl)C(=O)N(Cc3ccccc3)C2=O)cc1 | 34.2 µM | > 100 µM |  |  | 64.6 µM | > 100 µM | 12.8 µM | 25.4 µM |  |  | 2840 | 9.04 | 34 µM | > 100 µM | 30.3 µM | 78.8 µM | 15.8 | 37.9 | 31.6 | > 100
CC1=C(C(=O)NCc2ccccc2)C(c2ccc(C3C(C(=O)NCc4ccccc4)=C(C)NC(C)=C3C(=O)NCc3ccccc3)cc2)C(C(=O)NCc2ccccc2)=C(C)N1 |  | 10.2 µM |  | 33.1 µM |  | 24.1 µM |  | 20.9 µM |  | 25.2 µM |  | > 100 |  | 22.7 µM |  |  |  | > 100 |  | 10.1
O=C(O)c1ccccc1Cc1ccco1 |  | > 100 µM |  | > 100 µM |  | > 100 µM |  | > 100 µM |  |  |  | > 100 |  | > 100 µM |  | > 100 µM |  | > 100 |  | > 100
O=C(CC1=Nc2nnc(-c3nnc4n3C(=O)C(CC(=O)c3cccnc3)=N4)n2C1=O)c1cccnc1 |  | > 100 µM |  | > 100 µM |  | > 100 µM |  |  |  | > 100 µM |  | > 100 |  | > 100 µM |  | > 100 µM |  | > 100 |  | > 100
C#CCC[C@@H]1O[C@@]1(C)CC/C=C(\C)CC/C=C/C=O |  |  |  | > 100 µM |  | 48.3 µM |  | 38.3 µM |  |  |  | 56.4 |  | 51.4 µM |  | > 100 µM |  | > 100 |  | 
CC1CC2C3CC(F)C4=CC(=O)C=CC4(C)C3(F)C(O)CC2(C)C1(O)C(=O)COC(=O)C(C)(C)C (stereo unspecified) |  | > 100 µM |  | > 100 µM |  | > 100 µM |  |  |  | > 100 µM |  | > 100 |  | > 100 µM |  |  |  | > 100 |  | > 100
CC1=CCC[C@@]2(C)C(CC[C@@H]2C(C)/C=C/C(C)C)c2ccc(cc2C(=O)O)C[C@@H](O)CC1 (stereo partly specified) |  | 20.7 µM |  |  |  | 34 µM |  | 33.3 µM |  | 28.4 µM |  | 19.7 |  | 32.2 µM |  | 32.3 µM |  | 20.1 |  | 29.8
COc1cccc([C@H]2CC(=O)c3cc4c(cc3N2)OCO4)c1 | 0.0604 µM | > 100 µM |  |  | 0.0864 µM |  |  |  |  | > 100 µM | 60.8 | 1.01 | 0.0676 µM | > 100 µM | 0.556 µM | > 100 µM |  |  |  | 0.698
CC(C)=CCN=C(N)N |  | > 100 µM |  | > 100 µM |  |  |  | > 100 µM |  | > 100 µM |  | 99.7 |  | > 100 µM |  | > 100 µM |  | > 100 |  | > 100
O=S(=O)(Nc1ncccn1)c1ccc(N=Nc2ccc(O)c3ncccc23)cc1 | 4.2 µM | 40.4 µM |  |  | 8.59 µM | 26.6 µM | 3.6 µM | 27.2 µM | 12.5 | 46.3 µM | 3940 | 25.2 | 5.67 µM | 33.7 µM | 19.2 µM | > 100 µM | 3.69 | 17.2 | 5 | 25.7
CC(C)(C)OC(=O)NCCNC1=CC(=O)c2nc3ccccc3c3ccnc1c23 | 22.3 µM | > 100 µM | 17100 | 46.8 µM | 18.5 µM | 61.1 µM | 16.6 µM | > 100 µM | 13.3 | 28.9 µM |  |  | 15.1 µM | 37.4 µM | 43.3 µM | > 100 µM | 15.2 | 43.1 | 18.3 | 44.8
